{"source": "patent US20030206884A1", "about": "“Embalming fluid” (AARD-BALM LIMITED, priority 2000, published 2003)", "origin": "cited, not measured here", "system": "eyes, nose and throat"}
{"molecule": "C=O", "note": "[formaldehyde]", "values": [{"measurement": "airborne concentration causing irritation of the eyes, nose and throat", "value": "above 0.1 ppm"}, {"measurement": "airborne concentration that is a danger to life and health", "value": 100, "unit": "ppm"}]}
